The values that follow come from US8592421B2, “Cyclic bioisosters of purine system derivatives and a pharmaceutical composition based thereon” (priority 2003, dated 2013).

The nature of series [1]: Electrochemical activity: polarographic reduction on mercury dripping electrode. It counts as physicochemical. The note with it: for number of electrons participating in the reduction reaction: calculated with Geirovsky-Ilkovich equation; for i: 2.0% sodium chloride background, 9·10^−4 M; for i / −E1/2: 37° C., forward trace, average for the group of compounds; for −E1/2: vs SCE; for half-wave potential more positive at reverse stroke compared to forward stroke: polarograms of reverse stroke.

A short description of series [2]: Morphine abstinence model: thymus condition (mass, nitrites). The format is in vivo, rats. Particulars: for Nitrites in thymus supernatant: control 0.331 ± 0.041; for Thymus mass: control 230 ± 14. The source says:
The spectrometric method is based the reaction of nitrites with the Griss reagent (a mixture of 2% solution of sulfanilamide and 0.2% N-(1-naphthyl)ethylene diamine. At the first step the nitrite reacts with sulfanilamide with formation of diazonium salt, and then with the second component to form azo dye with an adsorption maximum at 540 nm. For reduction of nitrates into nitrites, a fermentative method was used with bacterial reductase nitrate (Grisham M. B. et al., 1995). The samples of plasma and supernathant of the liver deproteinizated at 100° C. for 5 minutes incubated for 30 minutes at 37° C. in 50.0 mM of HEPES pH 7.4 in the presence of 0.2 unit/ml of Aspergillus reductase nitrate, 5.0 mkM of FAD and 0.1 mM of NAD-Ph. At the end of the reaction lactate dehydrogenase and pyruvate were added for isolation of NAD-Ph interfering with the Griss reaction. Then the Griss reagent was added and after 10-minute incubation the light absorption of the samples was measured at 540 nm. To amount of NOX^− was calculated using sodium nitrate as a standard.
The effect of the compounds according to the invention on the condition of the thymus of the rats was also investigated: a control group, an experimental group of morphinized animals and an experimental group of animals were first morphinized and then injected with the compounds according to the invention. The experiment was carried out similarly to that described above.

Series [3] concerns thrombocytes. In words: ADP-induced aggregation of thrombocytes after intravenous administration (in vivo). Details: species or system rabbit. How it is done: The experiments were carried out on male rabbits of the “Chinchilla” breed having a mass of 2.7±0.3 kg. 18-24 hours prior to the experiment they were deprived of feed while preserving free access to water.
To obtain plasma enriched with thrombocytes, blood was taken from a cut of a marginal vein of the rabbit ear, the sample was stabilized with 3.8% of sodium citrate solution in a ratio of 9:1 and centrifuged at 200 g (1000 rev/min) for 10 minutes. The top supernatant layer enriched with thrombocytes was transferred by an automatic dropper into a silicone test tube and kept at 37° C. The plasma enriched with thrombocytes contained, on the average, […]. If this content exceeded the specified 3×10^8 blood platelets in 1 liter, this sample was diluted to the necessary concentration with plasma deprived of thrombocytes, which was obtained by centrifuging blood at 650 g during 10 minutes.
The measurements of the optical density of the samples were made on two-channel aggregometer of the “Chronolog” Company (USA). A flask containing 490 mkl of plasma rich with thrombocytes was placed in a device, into which a magnetic agitator covered with Teflon was lowered. The index of maximum amplitude of aggregation (MA) in percent of a fall of the plasma optical density under effect of the aggregation inductor was recorded. The control index MA of plasma was compared with the MA of plasma incubated for 3 minutes with different concentrations of the compounds: from 10^−3 to 10^−7 in vitro experiments or with plasma obtained 15, 30, 60 and 120 minutes after intravenous administration of different doses of the compounds in vivo experiments.
The process of aggregation of thrombocytes was recorded with the help of a computer; on the monitor screen the there were depicted curves reflecting changes of the optical density of the plasma enriched which was taken as a standard 100% compared to the optical density of the non-thrombocyte plasma taken for 0% content of thrombocytes.
The antiaggregative capability of compounds 2, 15, 21, 37, according to the invention was tested in experiments in vivo. Introduced to the test animals intravenously were an aggregation inductor ADP at a concentration of 10^−5 M was and then the compounds according to the invention. The doses of the compounds were in a range from 15 to 60 mg/kg.
For leveling the different effects of the compounds in different days due the ambient temperature, humidity and other parameters, 2 animals of each series were taken for experiments every day. Under “series” there is understood a group of 6 animals used for studying one of the doses of the compounds.
The blood for obtaining plasma enriched with thrombocytes was taken from marginal vein of the rabbit ear: in the control group—directly before introducing the tested compounds; in investigated groups—15 minutes after introducing these compounds and then after 30, 60, 120 minutes and so on up to the moment when the effect of suppression of aggregation disappeared.
The quantity of thrombocytes was counted before the experiment and at the end thereof in each plasma sample.

Setting [4] is: Administration of morphine and compound.
Setting [5] is: 15.0 mg/kg intravenously, after 15 minutes, control 50.1 ± 1.7.
The mark [6] stands for this setting: 15.0 mg/kg intravenously, after 30 minutes, control 50.1 ± 1.7.
Setting [7] is: 15.0 mg/kg intravenously, after 60 minutes, control 50.1 ± 1.7.
Where [8] appears, read: 15.0 mg/kg intravenously, after 120 minutes, control 50.1 ± 1.7.
Setting [9] is: 30.0 mg/kg intravenously, after 15 minutes, control 61.0 ± 1.3.
Where [10] appears, read: 30.0 mg/kg intravenously, after 30 minutes, control 61.0 ± 1.3.
The mark [11] stands for this setting: 30.0 mg/kg intravenously, after 60 minutes, control 61.0 ± 1.3.
Where [12] appears, read: 30.0 mg/kg intravenously, after 120 minutes, control 61.0 ± 1.3.
Setting [13] is: 60.0 mg/kg intravenously, after 15 minutes, control 48.6 ± 1.3.
Where [14] appears, read: 60.0 mg/kg intravenously, after 30 minutes, control 48.6 ± 1.3.
The mark [15] stands for this setting: 60.0 mg/kg intravenously, after 60 minutes, control 48.6 ± 1.3.
The mark [16] stands for this setting: 60.0 mg/kg intravenously, after 120 minutes, control 48.6 ± 1.3.

The structures appear in SMILES notation.

For `O=c1[nH][nH]c(=O)c2nccnc12.[Li]` [Compound 25, lithium salt of pyrazine[2,3-d]-6H-pyridazine-5,8-dione], the “number of electrons participating in the reduction reaction” value (“number … in the reduction reaction” for short) in series [1] is on record as 3.72. Moreover, the i in series [1] (pH 7.0) came to 0.32 ± 0.03 mkA; in series [1] (pH 7.2) it was 0.33 ± 0.04 mkA; in series [1] (pH 7.4), 0.34 ± 0.03 mkA; in series [1] (pH 7.6), 0.34 ± 0.02 mkA. The “−E1/2” value in series [1] (pH 7.0) is reported as 0.16 ± 0.02 V; in series [1] (pH 7.2) it was 0.19 ± 0.02 V; in series [1] (pH 7.4), 0.175 ± 0.01 V; in series [1] (pH 7.6) it was 0.16 ± 0.015 V. In addition, the “half-wave potential more positive at reverse stroke compared to forward stroke” value in series [1] is 20.0 mV. Besides, the “Nitrites in thymus supernatant” value in series [2] (Administration of compounds) is recorded as 0.417 ± 0.02 nmol/mg of protein; in series [2] (setting [4]), 0.396 ± 0.02 nmol/mg of protein. Further, the Thymus mass in series [2] (Administration of compounds) worked out at 254 ± 14 mg; in series [2] (setting [4]), 218 ± 17 mg.
For the compound `O=c1[nH][nH]c(=O)c2ncccc12.[Li]` [Compound 6, lithium salt of pyrido[2,3-d]-6H-pyridazine-5,8-dione], in series [2] (Administration of compounds), the “Nitrites in thymus supernatant” value is given as 0.424 ± 0.04 nmol/mg of protein and the Thymus mass was 242 ± 17 mg. Also, in series [2] (setting [4]), the “Nitrites in thymus supernatant” value was 0.419 ± 0.02 nmol/mg of protein and the Thymus mass was 207 ± 14 mg.
Turning to `O=c1[nH][nH]c(=O)c2c(Br)ncnc12.[K]` [Compound 37, potassium salt of 4-bromine-pyrimido[4,5-D]-6H-pyridazine-5,8-dione], the “MA - drop of optical density” value came out at 42.9 ± 1.6 % in series [3] (setting [5]); 41.9 ± 1.6 % in series [3] (setting [6]); 45.9 ± 1.6% in series [3] (setting [7]); 48.7 ± 2.1% in series [3] (setting [8]); 43.5 ± 2.0 % in series [3] (setting [9]); 42.0 ± 1.4 % in series [3] (setting [10]). Moreover, the “MA - drop of optical density” value in series [3] (setting [11]) came out at 41.6 ± 1.4 %; in series [3] (setting [12]), 58.4 ± 1.7%; in series [3] (setting [13]) it was 43.4 ± 1.8 %; in series [3] (setting [14]), 42.4 ± 0.7 %; in series [3] (setting [15]), 46.2 ± 2.0%; in series [3] (setting [16]), 47.3 ± 1.7%. The results for the “Nitrites in thymus supernatant” value in series [2] (Administration of compounds) and in series [2] (setting [4]) were 0.410 ± 0.01 nmol/mg of protein and 0.387 ± 0.01 nmol/mg of protein, respectively. In addition, the Thymus mass in series [2] (Administration of compounds) was 263 ± 21 mg; in series [2] (setting [4]), 228 ± 15 mg.
As to `O=c1[nH]n([C@@H]2O[C@H](CO)[C@@H](O)[C@H]2O)c(=O)c2nc(O)cnc12.[Na].[Na]` [Compound 23, disodium salt of 2-hydroxy-7-(β-D-ribofuranosile)pyrazine[2,3—Cl]-6H-pyridazine-5,8-dione], the “number … in the reduction reaction” value in series [1] is recorded as 3.72. In addition, the i came to 0.32 ± 0.03 mkA in series [1] (pH 7.0), 0.33 ± 0.04 mkA in series [1] (pH 7.2), 0.34 ± 0.03 mkA in series [1] (pH 7.4) and 0.34 ± 0.02 mkA in series [1] (pH 7.6). For the same compound, the “−E1/2” value in series [1] (pH 7.0) was determined as 0.16 ± 0.02 V; in series [1] (pH 7.2) it was 0.19 ± 0.02 V; in series [1] (pH 7.4) it was 0.175 ± 0.01 V; in series [1] (pH 7.6), 0.16 ± 0.015 V. For the same compound, the “half-wave potential more positive at reverse stroke compared to forward stroke” value in series [1] stood at 20.0 mV.
Turning to `Nc1cnc2c(=O)n([C@@H]3O[C@H](CO)[C@@H](O)[C@H]3O)[nH]c(=O)c2n1.[Na]` [Compound 21, sodium salt of 3-amino-7-(β-D-ribofuranosile)pyrazine[2,3-d]-6H-pyridazine-5,8-dione], the “MA - drop of optical density” value in series [3] (setting [5]) amounted to 43.5 ± 1.7 %; in series [3] (setting [6]), 43.3 ± 1.7 %; in series [3] (setting [7]), 46.7 ± 1.5 %; in series [3] (setting [8]), 49.1 ± 1.7%; in series [3] (setting [9]), 46.7 ± 1.9 %; in series [3] (setting [10]), 45.4 ± 1.8 %. The “MA - drop of optical density” value in series [3] (setting [11]) worked out at 45.0 ± 1.9%; in series [3] (setting [12]) it was 60.3 ± 2.1%; in series [3] (setting [13]), 45.1 ± 0.9 %; in series [3] (setting [14]), 43.2 ± 2.0 %; in series [3] (setting [15]), 47.3 ± 1.6%; in series [3] (setting [16]), 48.3 ± 1.5%.
On to `Nc1ccnc2c(=O)n([C@@H]3O[C@H](CO)[C@@H](O)[C@H]3O)[nH]c(=O)c12` [Compound 2, 4-amino-7-(β-D-ribofuranosile)pyrido[2,3-d]-6H-pyridazine-5,8-dione], for which the “MA - drop of optical density” value in series [3] (setting [5]) worked out at 44.2 ± 2.0 %; in series [3] (setting [6]) it was 42.2 ± 1.6 %; in series [3] (setting [7]), 46.9 ± 1.7 %; in series [3] (setting [8]) it was 49.2 ± 2.0%; in series [3] (setting [9]), 45.3 ± 2.0 %; in series [3] (setting [10]), 43.7 ± 1.7 %. In addition, the “MA - drop of optical density” value in series [3] (setting [11]) is given as 40.1 ± 2.2 %; in series [3] (setting [12]), 59.7 ± 2.2%; in series [3] (setting [13]), 45.2 ± 1.2 %; in series [3] (setting [14]), 43.6 ± 2.0 %; in series [3] (setting [15]), 47.8 ± 1.5%; in series [3] (setting [16]), 48.0 ± 1.2%.
For the compound `Nc1ncc2c(=O)[nH][nH]c(=O)c2n1` [Compound 36, 2-amino-pyrimido[4,5-d]-6H-pyridazine-5,8-dione], the “number … in the reduction reaction” value in series [1] was 3.5. Further, the i in series [1] (pH 7.0) is given as 0.30 ± 0.05 mkA; in series [1] (pH 7.2), 0.26 ± 0.02 mkA; in series [1] (pH 7.4), 0.30 ± 0.03 mkA; in series [1] (pH 7.6), 0.30 ± 0.02 mkA. For the same compound, the “−E1/2” value in series [1] (pH 7.0) came out at 0.08 ± 0.02 V; in series [1] (pH 7.2), 0.085 ± 0.015 V; in series [1] (pH 7.4), 0.085 ± 0.02 V; in series [1] (pH 7.6) it was 0.09 ± 0.02 V.
